This passage reports IC50 results from patent US6589956B2, “Benzenesulphonamide compounds” (Les Laboratoires Servier, priority 2001, dated 2003).

The test system of experiment [1] is platelets in human platelet-rich plasma (5-hydroxytryptamine-induced aggregation). Put plainly: Platelet aggregation in man induced by 5-hydroxytryptamine. The experiment is classed as cell-based. Particulars: human PRP, 5-hydroxytryptamine 10 μM in the presence of 0.3 μM adenosine diphosphate and 1 μM adrenalin, read-out: IC50, inhibition of platelet aggregation produced by 5-hydroxytryptamine. As for the experimental part: (§1) Venous blood is obtained from human volunteers who have not taken aspirin for at least 14 days prior to the experiment. The blood is removed over sodium citrate (0.109 M) (1 vol. of citrate over 9 vol. of blood). Platelet-rich plasma (PRP) is obtained by centrifugation (20° C.) at 200 g for 10 minutes. The number of platelets is on average. 250000 PL/mm^3. The PRP is stored at room temperature until the test and is used within 2 hours of having been taken. The TXA2 agonist U46619 is used at a concentration of 1 μM and 5-hydroxytryptamine is used at a concentration of 10 μM, the latter in the presence of 0.3 μM adenosine diphosphate and 1 μM adrenalin.

Experiment [2] has as its system platelets in human platelet-rich plasma (TXA2 agonist U46619-induced aggregation). Put plainly: Platelet aggregation in man induced by the TXA2 agonist U46619. Particulars: human PRP, U46619 1 μM, read-out: IC50, inhibition of platelet aggregation induced by the TXA2 agonist. The experiment is classed as cell-based. As for the experimental part: as §1

What is called IC50 is the concentration at which inhibition is half-maximal. As to `O=C(O)CCn1cc(CCN2CCN(c3nsc4ccccc34)CC2)c2cc(CCNS(=O)(=O)c3ccc(Cl)cc3)ccc21` [Example 6, 3-[3-{2-[4-(1,2-Benzisothiazol-3-yl)-1-piperazinyl]ethyl}-5-(2-{[(4-chlorophenyl)sulphonyl]amino}ethyl)-1H-indol-1-yl]propanoic Acid], the IC50 was 3 µM in experiment [1] and 1.5 µM in experiment [2].
